The values that follow come from patent publication US20100047332A1, “Treatments for burns using thyroid hormone compound in a human” (priority 2005, published 2010).

Data set [1] has as its system cellulite and subcutaneous fat. The data set is described as follows: TriAc cream before exercise for cellulite. Format: in vivo, human. The note with it: after twelve applications. The procedure:
TriAc-containing creams were produced by dissolving TriAc in a suitable solvent and adding it to a cream base. […] TriAc could also be added to the oil phase of a water in oil or a oil in water cream base, or charged in a solid lipid nanoparticle, or applied as a liposome, or a matrix patch as is known in the art.
The cream was only applied before exercise. More specifically, application occurred between 30 minutes and 2 hours before mild exercise. The mild exercise involved the underlying musculature, and included long walks, jogging, or gym exercises involving light resistance exercises, or stairmasters, treadmills and the like.
The amount of cream applied was always less than 5 ml, just sufficient to cover the area, usually less than 2 ml. […] For most of the applications, the amount of cream applied was less than 3 ml and usually less than 1.5 ml. In these applications, less than 0.4 mg was applied and as little as 80 μg was applied in at least some of the applications. Exercise occurred one to three times a week. Consequently, the cream was only applied one to three times a week. Two grams of cream, approximately 2 mls, was sufficient to cover the buttocks, back of thighs, and anterior waist area.

The test system of data set [2] is second degree partial thickness scald burn. In words: TriAc cream applied intermittently to a scalding burn in a burn patient. The class given is in vivo, human. The procedure:
The water content was 65 to 75%, with approximately 30% solids. The semi solid cream formulation includes water, emulsifier, aloe vera, and less than 1% of d-tocopherol acetate or equivalent, panthenol, and retinyl palmitate.
On scalding burn day 0, ice was applied all night. The wound appeared as a large reddish area approximately 15 by 30 cm, with an area of white skin approximately 10 by 10 cm. The cream was applied to the entire area in an amount of much less than 1 gm (less than 80 μg per 400 cm^2) on the evening of Day 1, 24 hours post burn. The worst blistering and numbness was over the whitish area. Over the next 48 hours, the wound became somewhat less painful and the white area started to become pink and then red. The outer area extending over the knee remained red. This burn was therefore a split thickness second degree burn with areas of third degree burn.
The cream was applied again on the evening of Day 3, 72 hours post burn, only to a small area of most burned blistered skin over the original whitish area. […] Prior to application of the cream, the entire area was brilliantly red.
The cream was applied again on the evening of Day 4 over the entire area during this application. […] The entire area of the burn now had brownish epidermis in the process of being sloughed. […] FIGS. 1 and 2 are separated by approximately 36 hours.
This is six 24 hour periods from the time of the burn. […] The outline of the burn injury can clearly be seen by examining the margins of the wound.

Data set [3] concerns thyroid hormone receptor TRα or β. The following applies: cited from earlier work.
Data set [4] concerns TSH. The following applies: topically applied, humans; cited from earlier work.
Data set [5] relates to TSH. The following applies: cited from earlier work.

Regarding `O=C(O)Cc1cc(I)c(Oc2ccc(O)c(I)c2)c(I)c1` [TriAc, [4-(4-hydroxy-3-iodophenoxy)-3,5-diiodophenyl]acetic acid], in data set [1] (8 to 16 mg TriAc per 100 ml, before exercise), the cellulite result was “little evidence of cellulite remained”. In data set [1], the “contour of the buttocks” value was “smaller and smoother”. Further, the “pain in the small treated area” value in data set [2] (24 hours after Day 3 application) is “greatly diminished”. Also, the “increase in healing rate” value in data set [2] (about 1/20th to 1/40th of a normal daily replacement dose, intermittent) is listed as “greater than 100%”. The pigmentation or scar result in data set [2] (after 1.5 years) is reported as “no pigmentation or scar”. Also, the pain result in data set [2] (after application over entire area on Day 4) is recorded as “All pain was resolved overnight”. Moreover, the erythema and tenderness entry in data set [2] (applied Day 3 to a small area, only where applied) was “decrease in erythema and tenderness”. For the same compound, the “healing rate of a burn” value in data set [2] (applied twice, less than 80 μg per 400 cm^2, versus time course in medical literature) is given as “approximately doubled the healing rate”. Moreover, the “effect of the first application” value in data set [2] (cream applied to entire area on Day 1, observed over next 48 hours) is “no visible or other obvious indications that the first application had any effect”. In addition, in data set [2] (day 5), the “signs of inflammation or infection in the wound” value was “no signs of inflammation or infection”. For the same compound, the “re-epithelialization of the skin” value in data set [2] (day 5, 20 hours after second application to entire area) was “virtually completely re-epithelialized”. In data set [2] (post scald second degree partial thickness burn), the “time to complete re-epithelialization” value is recorded as “five to six 24 hour periods”. The “healing time versus average prior art healing time” value in data set [2] (prior art 19 days) is recorded as “fourteen days less than the average prior art healing time of 19 days”. In data set [3], the “potency as thyroid hormone agonist” value was “potency about that of T-3” and the selectivity in binding entry is “slightly Beta selective”. Besides, the “effect on TSH levels or other thyroid hormone function tests” value in data set [4] is “no effect on TSH levels”. Moreover, the “transient change of TSH levels” value in data set [5] (350 ug oral, over a few hour time period) is 30%. Besides, in data set [5] (oral, human), the “minimum oral dosage which transiently changes TSH levels” value is 350 µg.
